Measurements as given in patent publication US20210024499A1, “OXIDIZED BIS(3-INDOLYL)METHANES AND USES THEREOF” (Sanford Burnam Prebys Medical Discovery Institute, priority 2018, published 2021).

Columns and labels:
HCT116 cancer cells = test: Apoptosis assay, Annexin V-FITC/propidium iodide flow cytometry; type: cell-based; details: Homo sapiens, HCT-116, 6 hours, Annexin V-FITC/PI flow cytometry (Table 4)
Description: HCT116 cancer cells plated at a density of 1×10^6 per well on six-well plates were treated with different concentration of test compounds for 6 hours, and then the suspension and the adherent cells were collected, stained with Annexin V-FITC for 15 minutes and with propodium iodide for 5 minutes, and analyzed immediately by cytoFLEX Flow Cytometry System (Beckman-Coulter, Miami, Fla., USA) using FITC and PC5.5 (Table 4).

[1] = tested on: Nur77 interaction with Bcl-2; test: Confocal microscopy colocalization of Nur77 with Bcl-2; type: cell-based
Nur77 = biological target: T1, Nur77 (Homo sapiens, UniProt P22736); test: Immunostaining of Nur77 localization, HCT116; type: cell-based; details: HCT116 cells, 0.5 μM, 2 hours
T1 construct: expressed in transfected cells
T1 sequence (P22736 whole entry): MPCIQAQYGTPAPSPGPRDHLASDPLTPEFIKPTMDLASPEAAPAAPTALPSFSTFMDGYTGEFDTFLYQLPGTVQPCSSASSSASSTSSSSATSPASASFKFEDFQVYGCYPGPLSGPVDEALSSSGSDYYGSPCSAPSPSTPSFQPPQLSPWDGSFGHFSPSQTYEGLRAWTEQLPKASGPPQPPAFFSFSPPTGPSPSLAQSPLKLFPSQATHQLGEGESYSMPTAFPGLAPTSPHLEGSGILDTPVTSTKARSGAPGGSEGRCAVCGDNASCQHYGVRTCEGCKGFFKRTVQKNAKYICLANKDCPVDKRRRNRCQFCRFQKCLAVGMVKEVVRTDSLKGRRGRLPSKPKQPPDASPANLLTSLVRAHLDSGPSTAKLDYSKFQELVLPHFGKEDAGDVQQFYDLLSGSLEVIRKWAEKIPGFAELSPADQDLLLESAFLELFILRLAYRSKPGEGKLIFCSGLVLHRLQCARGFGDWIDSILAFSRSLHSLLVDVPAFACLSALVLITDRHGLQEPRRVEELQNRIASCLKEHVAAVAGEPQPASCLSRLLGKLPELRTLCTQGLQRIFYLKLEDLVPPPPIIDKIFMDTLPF
Description: Cells were fixed in 3.7% paraformaldehyde. For mitochondrial staining, cells were incubated with anti-Hsp60 goat immunoglobulin G (IgG) (Santa Cruz Biotechnology, Santa Cruz, Calif.), followed by anti-goat IgG conjugated with Cy3. The nuclei were visualized by DAPI staining. Fluorescent images were collected and analyzed by using a fluorescence microscopy or MRC-1024 MP laser-scanning confocal microscope (Bio-Rad, Hercules, Calif.).
To confirm the effect of Compound 1 on Nur77 cytoplasmic localization, HEK293T cells were transfected with GFP-Nur77 and subsequently treated with 0.5 μM Compound 1.

Bcl-2−/−MEF cells [2] = test: Mitochondrial ROS, Bcl-2-/- MEF; type: cell-based, mouse
Description: (§1) Loss of mitochondrial membrane potential (Avm) represents one of the hallmarks of apoptosis. A JC-1 probe was employed to measure mitochondrial depolarization in cancer cells. MDA-MB-231 breast cancer cells were treated with different concentration of test compounds for 6 hours. JC-1 staining solution (5 μg/ml) was added at 37° C. for 20 min. After washing with PBS twice, mitochondrial membrane potentials were monitored by determining the relative amounts of dual emission from a multiple fluorescence reader. The fluorescence in cells was quantitatively analyzed by flow cytometry. Mitochondrial depolarization is depicted by an increase in the green/red fluorescence intensity ratio. ROS were monitored with the oxiadtion-senstive fluorescent probe 2′7′-dichlorodihydroflurescenin diacetate (DCF-DA).
In addition, Bcl-2^−/−MEF cells were more resistant than the parental MEF cells to Compound 1 in its induction of the mitochondrial membrane potential loss measured by JC1 staining and in the release of mitochondrial ROS (as performed in Example A-12).

Bcl-2−/−MEF cells [3] = test: DAPI staining for apoptosis, Bcl-2-/- MEFs; type: cell-based, mouse; details: 0.5 μM
Source text: (§2) The apoptotic effect of Compound 1 was also examined in mouse embryonic fibroblast (MEF) and MEF lacking Bcl-2 (Bcl-2^−/−MEF). […] Apoptotic cells were counted in 200 cells.

HeLa cells = test: PARP cleavage assay (Western blotting), HeLa; type: cell-based; details: 6 hours
Source text: (§3) Compound 1a had no effect under the same conditions (FIG. 1A). […] Compound 1a, 28a, 47a, 48a, 73a, 39a, 70a, 103a, 89a and 88a had no effect under the same conditions (FIG. 3B-C).

Nur77-LBD [4] = biological target: T2, Nur77-LBD (Homo sapiens, UniProt P22736); test: Surface plasmon resonance (SPR) binding to Nur77-LBD; details: Nur77-LBD protein, 25° C.
T2 construct: Protein spectra of purified Nur77-LBD at temperature 50° C. and above changed substantially; His (N); made in house
T2 sequence (P22736 360-595 limits assumed): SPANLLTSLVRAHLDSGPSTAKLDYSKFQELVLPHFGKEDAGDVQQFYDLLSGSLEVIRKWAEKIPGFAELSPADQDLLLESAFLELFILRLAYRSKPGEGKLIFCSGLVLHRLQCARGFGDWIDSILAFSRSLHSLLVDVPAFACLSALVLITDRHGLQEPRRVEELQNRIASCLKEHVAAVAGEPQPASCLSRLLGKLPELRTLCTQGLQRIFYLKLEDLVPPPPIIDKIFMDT
Description: The binding kinetics between Nur77-LBD and test compounds was analyzed at 25° C. on a BlAcore T200 machine with CMS chips (GE Healthcare). PBSP was used for all measurements. For SPR measurements, Nur77-LBD proteins were purified. A blank channel was used as negative control. About 10,000 response units of Nur77-LBD were immobilized on the chips. When the data collection was finished in each cycle, the sensor surface was regenerated with Glycine-HCl 2.5. A serial of concentrations ranging from 0.15 to 5.0 μM were designed for the experiment. Sensograms were fit globally with BIAcore T200 analysis using 1:1 Langumuir binding mode.

Bcl-2−/−HeLa cells [5] = test: PARP cleavage and caspase 3 activation, Bcl-2 knockout HeLa; type: cell-based
Description: Knocking out Nur77 and Bcl-2 from HeLa cells employed the CRISPR/Cas9 system. gRNA targeting sequence of Nur77 (5′-[…]-3′) and Bcl-2 (5′-[…]-3′) was cloned into gRNA cloning vector Px330 (Addgene, 71707) and confirmed by sequencing. To screen for cells lacking Nur77 or Bcl-2, HeLa cells were transfected with control vector and gRNA expression vectors, followed by G418 selection (0.5mg/m1). Single colonies were subjected to Western blotting using anti-Nur77 and anti-Bcl-2 antibody to select knockout cells.
The apoptotic effect of Compound lwas also evaluated in Bcl-2 genome knockout HeLa cells generated by CRISPR/Cas9 technology (Example A-5).

Bcl-2−/− HeLa cells = test: Mitochondrial ROS, Bcl-2 knockout HeLa; type: cell-based
Description: as §1
(§4) In addition, Bcl-2^−/−HeLa cells were more resistant than the parental HeLa cells to Compound 1 in its induction of the mitochondrial membrane potential loss measured by JC1 staining and in the release of mitochondrial ROS (as performed in Example A-12).

Nur77-LBD [6] = biological target: T2, Nur77-LBD; test: Circular dichroism (CD) binding to Nur77-LBD; details: purified Nur77-LBD, spectra changed at 50° C. and above (FIG. 9)
Description: Stock solutions of 100 mM test compound in ethanol were added to 0.5 ml of 1 μM purified His-proteins in PBS, pH 7.6. CD spectra were obtained in a 0.2 cm path length cell at temperature between 25° C. to 65° C. by using an AVIV 62 DS spectropolarimeter for a wavelength range at 220 nm. Three spectra were corrected for background and averaged for each sample. The Kd was determined using nonlinear regression analysis for a one-site binding model (χ2>0.98).

Bcl-2−/−HeLa cells [7] = test: Mitochondrial membrane potential (JC1), Bcl-2 knockout HeLa; type: cell-based; details: 0.5 μM, 6 h
Description: as §1, §4

MDA-MB-231 cells = test: PARP cleavage assay (Western blotting), MDA-MB-231; type: cell-based; details: 0.5 μM, 6 hours
Source text: as §3

Bcl-2−/−MEFs = test: PARP cleavage, Bcl-2-/- MEFs; type: cell-based, mouse; details: 0.5 μM
Source text: as §2

Nur77−/−MEFs = test: PARP cleavage, Nur77-/- MEFs; type: cell-based, mouse; details: 0.5 μM
Description: The apoptotic effect of Compound 1 was examined in mouse embryonic fibroblast (MEF) and MEF lacking Nur77 (Nur77^−/−MEF). […] Induction of PARP cleavage (as performed in Example A-7) in MEFs by Compound 1 at 0.5 μM was also attenuated in Nur77^−/−MEFs.

IC50 (HCT116 cancer cells): < 500 nM
Nur77 subcellular localization (immunostaining) (Nur77): predominantly cytoplasmic
Kd (Nur77-LBD [4]): 100 nM
binding to Nur77-LBD (CD spectra) (Nur77-LBD [6]): direct binding
Compound: FC(F)(F)c1ccc([C+](c2c[nH]c3ccccc23)c2c[nH]c3ccccc23)cc1 [Compound 1, Bis(1H-indol-3-yl)(4-(trifluoromethyl)phenyl)methylium methanesulfonate]
colocalization of transfected GFP-Nur77 (and GFP-Nur77-LBD) with Bcl-2 [1]: promoted extensive colocalization
increase in mito-ROS relative to regular MEF cells (Bcl-2−/−MEF cells [2]): smaller increase
cells with chromatin condensation and nuclear fragmentation (DAPI) (Bcl-2−/−MEF cells [3]): 14%
concentration inducing PARP cleavage (dose dependent study) (HeLa cells): submicromolar concentrations
induction of PARP cleavage and caspase 3 activation (Bcl-2−/−HeLa cells [5]): strongly suppressed
increase in mito-ROS relative to regular HeLa cells (Bcl-2−/− HeLa cells): smaller increase
JC1 green to red ratio (Bcl-2−/−HeLa cells [7]): no change
PARP cleavage (MDA-MB-231 cells): effectively induced PARP cleavage
PARP cleavage (Bcl-2−/−MEFs): no apparent effect
induction of PARP cleavage relative to MEFs (Nur77−/−MEFs): attenuated
